Laboratory results from US12195473B2, “KRAS mutant protein inhibitors” (JACOBIO PHARMACEUTICALS CO., LTD, priority 2019, dated 2025).
pIC50: −log10 of the molar value. Where two headings read alike, the source gives them in different places.

What was measured:
HIS-KRAS (G12C) = format: biochemical; settings: read-out: SOS1 catalyzed nucleotide exchange IC50
[1] = Mouse pharmacokinetic study; format: in vivo, Balb/c mouse
Method: 3. Mouse Pharmacokinetic Study
The purpose of this study was to evaluate the pharmacokinetic properties of compounds in Balb/c mouse (♀) following single dose administration. The day before administration, mice were fasted overnight and free access to water. Six mice were needed for each compound and the six mice were divided into two groups (n=3/group), group A and group B. Mice in group A were treated with a single 3 mg/kg dose of compound (iv). Mice in group B were treated with a single 10 mg/kg dose of compound (po). For each mouse in group A, blood samples were collected at pre-dose, and at the time point of 0.083, 0.25, 0.5, 1, 2, 4, 6, 8 and 24 h post-dose. For each mouse in group B, blood samples were collected at pre-dose, and at the time point of 0.25, 0.5, 1, 2, 3, 4, 6, 8 and 24 h post-dose. Blood samples were placed on ice until centrifugation to obtain plasma samples. The plasma samples were stored at −80° C. until analysis. The concentration of compound in plasma samples were determined using a LC-MS/MS method.

[2] = GDP-loaded HIS-KRAS (G12C), 1 hour pre-incubation with compound, TR-FRET

SMILES | pIC50 (HIS-KRAS (G12C); [2]) | also measured
C=CC(=O)N1CCN(c2c(C#N)c(=O)n(-c3c(C)ccnc3C(C)C)c3nc(-c4c(N)c(Cl)c(F)c(Cl)c4F)c(Cl)cc23)CC1 [Compound 4, 4-(4-acryloylpiperazin-1-yl)-7-(2-amino-3,5-dichloro-4,6-difluorophenyl)-6-chloro-1-(2-isopropyl-4-methylpyridin-3-yl)-2-oxo-1,2-dihydro-1,8-naphthyridine-3-carbonitrile] | 8.46 | –
C=CC(=O)N1CCN(c2c(C#N)c(=O)n(-c3c(C)ccnc3C(C)C)c3nc(-c4c(N)c(F)c(F)c(F)c4F)c(Cl)cc23)[C@@H](C)C1 (single isomer, unassigned) [Compound 11-1] | 7.53 | –
C=CC(=O)N1[C@H](C)CN(c2c(C#N)c(=O)n(-c3c(C)ccnc3C(C)C)c3nc(-c4c(F)c(N)c(F)c(F)c4F)c(Cl)cc23)C[C@@H]1C [Compound 8, 4-((3S,5R)-4-acryloyl-3,5-dimethylpiperazin-1-yl)-7-(3-amino-2,4,5,6-tetrafluorophenyl)-6-chloro-1-(2-isopropyl-4-methylpyridin-3-yl)-2-oxo-1,2-dihydro-1,8-naphthyridine-3-carbonitrile] | 8.18 | –
C=CC(=O)N1CCN(c2c(C#N)c(=O)n(-c3c(C)ccnc3C(C)C)c3nc(-c4c(N)c(Cl)c(F)c(F)c4F)c(Cl)cc23)CC1 [Compound 3, 4-(4-acryloylpiperazin-1-yl)-7-(2-amino-3-chloro-4,5,6-trifluorophenyl)-6-chloro-1-(2-isopropyl-4-methylpyridin-3-yl)-2-oxo-1,2-dihydro-1,8-naphthyridine-3-carbonitrile] | 8.44 | –
C=CC(=O)N1CCN(c2c(C#N)c(=O)n(-c3c(C)ccnc3C(C)C)c3nc(-c4c(F)c(F)c(F)c(N)c4Cl)c(Cl)cc23)[C@@H](C)C1 (single isomer, unassigned) [Compound 15-2] | 7.08 | –
C=CC(=O)N1CCN(c2c(C#N)c(=O)n(-c3c(C)ccnc3C(C)C)c3nc(-c4c(N)c(F)c(F)c(F)c4F)c(Cl)cc23)[C@@H](C)C1 (single isomer, unassigned) [Compound 11-2] | 8.68 | –
C=CC(=O)N1CCN(c2c(C#N)c(=O)n(-c3c(C)ccnc3C(C)C)c3nc(-c4c(F)c(F)c(F)c(N)c4Cl)c(Cl)cc23)CC1 (single isomer, unassigned) [Compound 12-2, 4-(4-acryloylpiperazin-1-yl)-7-(3-amino-2-chloro-4,5,6-trifluorophenyl)-6-chloro-1-(2-isopropyl-4-methylpyridin-3-yl)-2-oxo-1,2-dihydro-1,8-naphthyridine-3-carbonitrile] | – | pIC50 (HIS-KRAS (G12C)): 8.70
C=CC(=O)N1CCN(c2c(C#N)c(=O)n(-c3c(C)ccnc3C(C)C)c3nc(-c4c(F)c(N)c(F)c(F)c4F)c(Cl)cc23)CC1 [Compound 6, 4-(4-acryloylpiperazin-1-yl)-7-(3-amino-2,4,5,6-tetrafluorophenyl)-6-chloro-1-(2-isopropyl-4-methylpyridin-3-yl)-2-oxo-1,2-dihydro-1,8-naphthyridine-3-carbonitrile] | 8.82 | –
C=CC(=O)N1CCN(c2c(C#N)c(=O)n(-c3c(C)ccnc3C(C)C)c3nc(-c4c(F)c(F)c(F)c(N)c4Cl)c(Cl)cc23)CC1 (single isomer, unassigned) [Compound 12-1, 4-(4-acryloylpiperazin-1-yl)-7-(3-amino-2-chloro-4,5,6-trifluorophenyl)-6-chloro-1-(2-isopropyl-4-methylpyridin-3-yl)-2-oxo-1,2-dihydro-1,8-naphthyridine-3-carbonitrile] | 7.80 | –
C=CC(=O)N1CCN(c2c(C#N)c(=O)n(-c3c(C)ccnc3C(C)C)c3nc(-c4c(N)c(F)c(F)c(F)c4F)c(Cl)cc23)C[C@H]1C [Compound 14, 4-((R)-4-acryloyl-3-methylpiperazin-1-yl)-7-(2-amino-3,4,5,6-tetrafluorophenyl)-6-chloro-1-(2-isopropyl-4-methylpyridin-3-yl)-2-oxo-1,2-dihydro-1,8-naphthyridine-3-carbonitrile] | 8.45 | –
C=CC(=O)N1CCN(c2c(C#N)c(=O)n(-c3c(C)ccnc3C(C)C)c3nc(-c4c(N)cccc4F)c(Cl)cc23)CC1 [Compound A, 4-(4-acryloylpiperazin-1-yl)-7-(2-amino-6-fluorophenyl)-6-chloro-1-(2-isopropyl-4-methylpyridin-3-yl)-2-oxo-1,2-dihydro-1,8-naphthyridine-3-carbonitrile, reference compound] | 8.77 | –
C=CC(=O)N1CCN(c2c(C#N)c(=O)n(-c3c(C)ccnc3C(C)C)c3nc(-c4c(F)c(F)c(F)c(N)c4Cl)c(Cl)cc23)[C@@H](C)C1 (single isomer, unassigned) [Compound 15-1] | 8.16 | –
C=CC(=O)N1CCN(c2c(C#N)c(=O)n(-c3c(C)ccnc3C(C)C)c3nc(-c4c(Cl)c(N)c(F)c(F)c4Cl)c(Cl)cc23)CC1 [Compound 2, 4-(4-acryloylpiperazin-1-yl)-7-(3-amino-2,6-dichloro-4,5-difluorophenyl)-6-chloro-1-(2-isopropyl-4-methylpyridin-3-yl)-2-oxo-1,2-dihydro-1,8-naphthyridine-3-carbonitrile] | 8.18 | –
C=CC(=O)N1[C@H](C)CN(c2c(C#N)c(=O)n(-c3c(C)ccnc3C(C)C)c3nc(-c4c(N)c(F)c(F)c(F)c4F)c(Cl)cc23)C[C@@H]1C [Compound 13, 4-((3S,5R)-4-acryloyl-3,5-dimethylpiperazin-1-yl)-7-(2-amino-3,4,5,6-tetrafluorophenyl)-6-chloro-1-(2-isopropyl-4-methylpyridin-3-yl)-2-oxo-1,2-dihydro-1,8-naphthyridine-3-carbonitrile] | 8.18 | –
C=CC(=O)N1CCN(c2c(C#N)c(=O)n(-c3c(C)ccnc3C(C)C)c3nc(-c4c(N)c(F)c(F)c(F)c4Cl)c(Cl)cc23)C[C@H]1C (single isomer, unassigned) [Compound 10-2] | 8.38 | –
C=CC(=O)N1[C@H](C)CN(c2c(C#N)c(=O)n(-c3c(C)ccnc3C(C)C)c3nc(-c4c(N)c(F)c(F)c(F)c4F)c(Cl)cc23)C[C@@H]1C (single isomer, unassigned) [Compound 13-2] | 7.94 | –
C=CC(=O)N1[C@H](C)CN(c2c(C#N)c(=O)n(-c3c(C)ccnc3C(C)C)c3nc(-c4c(N)c(F)c(F)c(F)c4F)c(Cl)cc23)C[C@@H]1C (single isomer, unassigned) [Compound 13-1] | 8.56 | –
C=CC(=O)N1CCN(c2c(C#N)c(=O)n(-c3c(C)ccnc3C(C)C)c3nc(-c4c(N)c(F)c(F)c(F)c4F)c(Cl)cc23)[C@@H](C)C1 [Compound 11, 4-((S)-4-acryloyl-2-methylpiperazin-1-yl)-7-(2-amino-3,4,5,6-tetrafluorophenyl)-6-chloro-1-(2-isopropyl-4-methylpyridin-3-yl)-2-oxo-1,2-dihydro-1,8-naphthyridine-3-carbonitrile] | – | Pharmacokinetic properties (in words) ([1]; mouse model, compared with Compound A, Amgen 6 and Amgen 6.3): excellent pharmacokinetic properties; clearance ([1]; plasma, Balb/c mouse (female), 3 mg/kg, iv): 0.432 L/h/kg; Vd ([1]; plasma, Balb/c mouse (female), 3 mg/kg, iv, read-out: Vss): 1 L/kg; Cmax ([1]; plasma, Balb/c mouse (female), 10 mg/kg, po): 3.34 µg/mL; AUC(0-t) ([1]; plasma, Balb/c mouse (female), 10 mg/kg, po, read-out: AUC0-24 h): 9.59 µg·h/mL; bioavailability ([1]; plasma, Balb/c mouse (female), 10 mg/kg, po, read-out: Oral BA (F %)): 38%
C=CC(=O)N1CCN(c2c(C#N)c(=O)n(-c3c(C)ccnc3C(C)C)c3nc(-c4c(F)c(F)c(F)c(N)c4Cl)c(Cl)cc23)CC1 [Compound 12, 4-(4-acryloylpiperazin-1-yl)-7-(3-amino-2-chloro-4,5,6-trifluorophenyl)-6-chloro-1-(2-isopropyl-4-methylpyridin-3-yl)-2-oxo-1,2-dihydro-1,8-naphthyridine-3-carbonitrile] | – | pIC50 (HIS-KRAS (G12C)): 8.41
C=CC(=O)N1CCN(c2c(C#N)c(=O)n(-c3c(C)ccnc3C(C)C)c3nc(-c4c(N)c(F)c(F)c(F)c4Cl)c(Cl)cc23)C[C@H]1C (single isomer, unassigned) [Compound 10-1] | 7.36 | –
C=CC(=O)N1CCN(c2c(C#N)c(=O)n(-c3c(C)ccnc3C(C)C)c3nc(-c4c(N)c(F)c(F)c(F)c4F)c(Cl)cc23)C[C@H]1C [Compound 9, 4-((R)-4-acryloyl-3-methylpiperazin-1-yl)-7-(2-amino-3,4,5,6-tetrafluorophenyl)-6-chloro-1-(2-isopropyl-4-methylpyridin-3-yl)-2-oxo-1,2-dihydro-1,8-naphthyridine-3-carbonitrile] | 8.64 | –
C=CC(=O)N1[C@H](C)CN(c2c(C#N)c(=O)n(-c3c(C)ccnc3C(C)C)c3nc(-c4ccccc4F)c(Cl)cc23)C[C@@H]1C [Amgen 7.3, 4-((3S,5R)-4-acryloyl-3,5-dimethylpiperazin-1-yl)-6-chloro-7-(2-fluorophenyl)-1-(2-isopropyl-4-methylpyridin-3-yl)-2-oxo-1,2-dihydro-1,8-naphthyridine-3-carbonitrile, reference compound] | 7.98 | –
C=CC(=O)N1[C@H](C)CN(c2c(C#N)c(=O)n(-c3c(C)ccnc3C(C)C)c3nc(-c4c(F)c(F)c(F)c(N)c4Cl)c(Cl)cc23)C[C@@H]1C [Compound 7, 4-((3S,5R)-4-acryloyl-3,5-dimethylpiperazin-1-yl)-7-(3-amino-2-chloro-4,5,6-trifluorophenyl)-6-chloro-1-(2-isopropyl-4-methylpyridin-3-yl)-2-oxo-1,2-dihydro-1,8-naphthyridine-3-carbonitrile] | 7.83 | –
